# Measurements taken from patent US9422267B2, “Fused pyrimidine compounds and use thereof” (Medivation Technologies, Inc., priority 2012, dated 2016).
# Experiments:
# [1] = system: Akt phosphorylation induced by IGF-1R in HT-29 cells; assay: Western blot analysis of Akt phosphorylation induced by IGF-1R; type: cell-based, Human; settings: then IGF-1 10 ng/mL 10 min, HT-29
# HCC 1187 = assay: Cell Titer-Glo cell viability: HCC 1187; type: cell-based; settings: Homo sapiens; HCC1187, breast cancer; 72 h
# Experimental: (§1) Compound nos. […] This panel of cell lines includes an ER− breast carcinoma, primary breast ductal carcinoma, prostate adenocarcinoma, mammary adenocarcinoma, mammary ductal carcinoma, mammary ductal carcinoma, ovary adenocarcinoma, ER+ breast carcinoma, ER-HER2+ mammary ductal carcinoma and an ER+ mammary ductal carcinoma, respectively.
# (§2) This assay quantitates the ATP present in order to determine the number of viable cells in culture. Briefly, the compounds were incubated with the cells for 72 h, followed by cell lysis. The resulting luminescent signal is proportional to the amount of ATP present and, therefore, directly proportional to the number of cells present in culture.
# (§3) Compounds 2b, 5, 6b and 10a were tested along with derivatives in viability assays as described above by Caliper LifeSciences Systems (Hanover, Md.), in A549, HCT-15, HCT-116, MCF-7, MDA-MB-231, OVCAR3, T47D, COLO205, HT-29, BT-20, HCC1187, HL-60, MDA-MB-175, SW-620, and UACC812 cells.
# ZR-75-1 = assay: Cell Titer-Glo cell viability: ZR-75-1; type: cell-based; settings: Homo sapiens; ZR-75-1, breast cancer; 72 h
# Experimental: as §1, §2
# OVCAR-3 = assay: Cell Titer-Glo cell viability: OVCAR-3; type: cell-based; settings: Homo sapiens, OVCAR3, ovarian cancer, 72 h
# Experimental: as §1, §2, §3
# UACC 812 = assay: Cell Titer-Glo cell viability: UACC 812; type: cell-based; settings: Homo sapiens, UACC-812; UACC812, breast cancer; 72 h
# Experimental: as §1, §2, §3
# The inhibitory effects of Compound 8a were tested in two cell lines.
# SW-620 = assay: Cell Titer-Glo cell viability: SW-620; type: cell-based; settings: Homo sapiens; SW-620, metastatic colorectal cancer; 72 h
# Experimental: as §2
# (§4) Compound nos. […] These cell lines are derived from human lung carcinoma, colon adenocarcinoma, colon adenocarcinoma, colon carcinoma, acute promyelocytic leukemia, colon adenocarcinoma, colon adenocarcinoma (from metastatic site lymph node), respectively.
# as §3
# BT-20 = assay: Cell Titer-Glo cell viability: BT-20; type: cell-based; settings: Homo sapiens, BT-20; BT20, breast cancer; 72 h
# Experimental: as §1, §2, §3
# MCF-7 = assay: Cell Titer-Glo cell viability: MCF-7; type: cell-based; settings: Homo sapiens; MCF7, breast cancer; 72 h
# Experimental: as §1, §2, §3
# HCT-116 = assay: Cell Titer-Glo cell viability: HCT-116; type: cell-based; settings: Homo sapiens, HCT116, colon carcinoma, 72 h
# Experimental: as §2, §4, §3
# A549 = assay: Cell Titer-Glo cell viability: A549; type: cell-based; settings: Homo sapiens; A549, non-small lung carcinoma; 72 h
# Experimental: as §2, §4, §3
# LNCaP = assay: Cell Titer-Glo cell viability: LNCaP; type: cell-based; settings: Homo sapiens, prostate cancer, 72 h
# Experimental: as §1, §2
# HCT-15 = assay: Cell Titer-Glo cell viability: HCT-15; type: cell-based; settings: Homo sapiens, HCT-15; HCT15, colon carcinoma; 72 h
# Experimental: as §2, §4, §3
# COLO 205 = assay: Cell Titer-Glo cell viability: COLO 205; type: cell-based; settings: Homo sapiens; COLO-205, colon adenocarcinoma; 72 h
# Experimental: as §2, §4, §3
# HL-60 = assay: Cell Titer-Glo cell viability: HL-60; type: cell-based, human; settings: 72 h
# Experimental: as §2, §4, §3
# T47D = assay: Cell Titer-Glo cell viability: T47D; type: cell-based; settings: Homo sapiens, breast cancer, 72 h
# Experimental: as §1, §2, §3
# HT-29 = assay: Cell Titer-Glo cell viability: HT-29; type: cell-based; settings: Homo sapiens, HT-29, 72 h, 72 h
# Experimental: as §2, §4, §3
compound,measurement,setting,value
"C[C@@]1(C(=O)Nc2ccc(F)nc2)CCCN1c1nc(Nc2cc(C3CC3)n[nH]2)c2cccn2n1 [BMS-754807, (S)-1-(4-(5-cyclopropyl-1H-pyrazol-3-ylamino)pyrrolo[1,2-f][1,2,4]triazin-2-yl)-N-(6-fluoropyridin-3-yl)-2-methylpyrrolidine-2-carboxamide, reference compound]",phosphorylated AKT levels normalized to actin levels (pAKT/actin),[1]; 10 nM compound 2 h,0.09
same,phosphorylated AKT levels normalized to actin levels (pAKT/actin),[1]; 100 nM compound 2 h,0.02
same,IC50,HCC 1187,< 10 µM
same,IC50,ZR-75-1,> 100 µM
same,IC50,OVCAR-3,< 10 µM
same,IC50,UACC 812,< 100 µM
same,IC50,SW-620,1 µM
same,IC50,BT-20,< 100 µM
same,IC50,MCF-7,0.1 µM
same,IC50,HCT-116,10 µM
same,IC50,A549,< 10 µM
same,IC50,LNCaP,< 10 µM
same,IC50,HCT-15,< 100 µM
same,IC50,COLO 205,< 1 µM
same,IC50,"HL-60; HL-60, promyelocytic leukemia",< 10 µM
same,IC50,"HL-60; Homo sapiens, HL-60, HL60, promyelocytic leukemia (second entry of the table)",< 10 µM
same,IC50,T47D,< 10 µM
same,IC50,"HT-29; HT29, colon adenocarcinoma (second entry of the table)",< 1 µM
same,IC50,"HT-29; HT-29, colon cancer",< 10 µM
